The series in a line: Water solubility. As to conditions: lisuride or a salt thereof.

Among the data in patent US20040219191A1, “Use of a dopamine agonist with a short half-life for treating illnesses which can be treated by dopaminergic means” (priority 2000, published 2004) are water solubility values, retold here.

Take `CCN(CC)C(=O)N[C@H]1C=C2c3cccc4[nH]cc(c34)C[C@H]2N(C)C1` [lisuride, 3-(9,10-didehydro-6-methyl-8α-ergolinyl)-1,1-diethyl urea]: the water solubility result was “good water solubility”.
